Results published in patent publication US6458194B1, “Azo dye compound having 1,2,4-triazole as the azo component” (Fuji Photo Film Co., Ltd., priority 1999, dated 2002).

How the values were obtained:
Type in all cases: physicochemical
[1] = Color fastness against light, Xe lamp irradiation of recorded image; conditions: Xe lamp 17,000 lux, 3 days; portion with initial reflection density 1.0
Source text: Next, the thermal transfer image accepting materials after such recording were irradiated with a Xe lamp (17,000 lux) for 3 days to evaluate the color fastness. More specifically, a portion showing a status-A reflection density of 1.0 before the irradiation was again measured for the status-A reflection density after the irradiation, which was expressed in a residual rate (in percent) to the pre-irradiation reflection density.

[2] = Suitability in ink production (solubility of coating composition for dye donating layer)
Source text: Suitability in Ink Production:
∘ coating composition for the thermal transfer dye donating layer has a good solubility;
Δ time-consuming heating is necessary to dissolve the coating composition for the thermal transfer dye donating layer; and
X incomplete solubilization of the coating composition for the thermal transfer dye donating layer having a undissolved portion of the dye crystal.

[3] = Absorption characteristic in ethyl acetate
Source text: FIG. 1 is a spectrum chart showing an absorption characteristic in ethyl acetate of Compound 9 of the present invention where optical density of the transmitted light through a cell having the light path length of 1 cm is 1.0. Wave lengths giving the maximum absorption (λmax) are 428 nm for Compound 9, 440 nm for Compound 18, 438 nm for Compound 31, 442 nm for Compound 32, 435 nm for Compound 33 and 434 nm for Compound 3.

Row | SMILES | Color Fastness (residual rate of status-A reflection density) [1] [%] | Suitability for ink production (in words) [2] | Wave length giving the maximum absorption (λmax) [3] [nm]
1 | CCSc1nsc(N=Nc2c(C)nn3c(C(C)(C)C)n[nH]c23)n1 [Comparative Compound “a”, reference compound] | 89 | inferior | 
2 | CCSc1nsc(N=Nc2c(C)nn3nc(C)[nH]c23)n1 [Compound 3] |  |  | 434
3 | CSc1nsc(N=Nc2c(C(C)(C)C)nn3nc(C(C)C)[nH]c23)n1 [Compound 4] | 90 |  | 
4 | CCCc1nn2nc(C(C)(C)C)c(N=Nc3nc(SC)ns3)c2[nH]1 [Compound 5] | 91 |  | 
5 | CSc1nsc(N=Nc2c(C(C)(C)C)nn3nc(C(C)CN4C(=O)c5ccccc5C4=O)[nH]c23)n1 (stereo not drawn) [Compound 15] | 89 |  | 
6 | CCS(=O)(=O)c1nsc(N=Nc2c(-c3ccccc3Cl)nn3nc(C(C)C)[nH]c23)n1 [Compound 18] | 91 |  | 440
7 | CSc1nsc(N=Nc2c(C(C)(C)C)nn3nc(C(C)CN4C(=O)C=CC4=O)[nH]c23)n1 (stereo not drawn) [Compound 25] | 90 |  | 
8 | CCSc1nsc(N=Nc2c(C(C)(C)C)nn3nc(C(C)C)[nH]c23)n1 [Compound 31] | 90 |  | 438
9 | CCS(=O)(=O)c1nsc(N=Nc2c(C(C)(C)C)nn3nc(C(C)C)[nH]c23)n1 [Compound 32] | 93 |  | 442

Other lines, results leading:

Row | Color Fastness (residual rate of status-A reflection density) [1] [%] | Suitability for ink production (in words) [2] | Wave length giving the maximum absorption (λmax) [3] [nm] | SMILES
10 | 90 |  |  | CSc1nsc(N=Nc2c(-c3ccccc3)nn3nc(C(C)C)[nH]c23)n1 [Compound 7]
11 | 92 |  | 428 | CC(C)c1nn2nc(-c3ccccc3Cl)c(N=Nc3nc(-c4ccccc4)ns3)c2[nH]1 [Compound 9]
12 | 90 |  |  | Cc1nn2nc(C(C)(C)C)c(N=Nc3nc(-c4ccccc4)ns3)c2[nH]1 [Compound 10]
13 | 88 |  |  | CCOc1nn2nc(C)[nH]c2c1N=Nc1nc(-c2ccc(C(F)(F)F)cc2)ns1 [Compound 11]
14 | 88 |  |  | COc1ccc(-c2nsc(N=Nc3c(C(C)(C)C)nn4nc(C(C)C)[nH]c34)n2)cc1 [Compound 20]
15 | 87 |  |  | Cc1nn2nc(C(C)C)c(N=Nc3nc(-c4ccccc4)ns3)c2[nH]1 [Compound 21]
16 | 91 |  |  | CCSc1nsc(/N=N/c2c(-c3ccccc3Cl)nn3nc(C(C)C)[nH]c23)n1 [Compound 34]
